This note sets out measurements from ChEMBL document CHEMBL1156497, “EF24 induces G2/M arrest and apoptosis in cisplatin-resistant human ovarian cancer cells by increasing PTEN expression” (J Biol Chem, 2007).

Assay [1] relates to A2780. As to the kind of experiment: Induction of apoptosis in cisplatin-resistant human A2780 cells assessed as activation of caspase cascade at 2 uM after 6 to 24 hrs by Western blotting. It is filed as functional, cell-based.
Assay [2] relates to A2780. Kind of assay: Induction of apoptosis in cisplatin-resistant human A2780 cells assessed as increase in TNFR1 expression at 2 uM after 6 to 24 hrs by immunoblot analysis. The format is functional, cell-based.
Assay [3] deals with A2780. As to the kind of experiment: Induction of apoptosis in cisplatin-resistant human A2780 cells assessed as decrease in Cdc2 expression at 2 uM by immunoblot analysis. Particulars: TDE = time-dependent effect. It is filed as functional, cell-based. (In general: A western blot detects proteins with antibodies after separation by electrophoresis.)
Assay [4] deals with A2780. Kind of assay: Induction of apoptosis in cisplatin-resistant human A2780 cells overexpressing PTEN assessed as enhancement of p21 by Western blotting. The format is functional, cell-based.
Assay [5] deals with A2780. Kind of assay: Reversal of induction of apoptosis in cisplatin-resistant human A2780 cells assessed as suppression of PTEN by immunoblot analysis in presence of PTEN-specific siRNA. It is filed as functional, cell-based.
Assay [6] concerns A2780. As to the kind of experiment: Induction of apoptosis in cisplatin-resistant human A2780 cells assessed as accumulation at G2/M phase at 2 uM after 3 hrs by flow cytometry relative to control. It is filed as functional. On the technique in general: A flow cytometer gives signals particle by particle.
In assay [7] the test system is A2780. Kind of assay: Induction of apoptosis in cisplatin-resistant human A2780 cells overexpressing PTEN assessed as enhancement of p53 by Western blotting. It is filed as functional, cell-based.
Assay [8] deals with A2780. Kind of assay: Induction of apoptosis in cisplatin-resistant human A2780 cells assessed as enhancement of p53 phosphorylation at 2 uM by immunoblot analysis. It is filed as functional, cell-based.
The test system of assay [9] is A2780. Kind of assay: Cell viability of cisplatin-resistant human A2780 cells after 24 hrs by MTT assay. The format is functional, cell-based. The following applies: A2780, 24 h. Background: Tetrazolium dyes change colour on reduction, which living cells bring about.
The test system of assay [10] is A2780. Kind of assay: Induction of apoptosis in cisplatin-resistant human A2780 cells assessed as accumulation at G2/M phase at 2 uM after 6 hrs by flow cytometry relative to control. The format is functional.
Assay [11] has as its system A2780. As to the kind of experiment: Reversal of induction of apoptosis in cisplatin-resistant human A2780 cells assessed as decrease of p21 level by immunoblot analysis in presence of PTEN-specific siRNA. It is filed as functional, cell-based.
Assay [12] relates to A2780. Kind of assay: Reversal of induction of apoptosis in cisplatin-resistant human A2780 cells assessed as decrease of p53 level by immunoblot analysis in presence of PTEN-specific siRNA. It is filed as functional, cell-based.
For assay [13], the system named is A2780. As to the kind of experiment: Induction of apoptosis in cisplatin-resistant human A2780 cells assessed as enhancement of p27 level at 2 uM by immunoblot analysis. The format is functional, cell-based.
Assay [14] concerns A2780. Kind of assay: Induction of apoptosis in cisplatin-resistant human A2780 cells assessed as inhibition of PTEN degradation at 2 uM by immunoblot analysis. It is filed as functional, cell-based.
Assay [15] relates to A2780. Kind of assay: Induction of apoptosis in cisplatin-resistant human A2780 cells assessed as decrease in Cdc25C expression at 2 uM by immunoblot analysis. The format is functional, cell-based. The following applies: TDE = time-dependent effect.
In assay [16] the test system is A2780. As to the kind of experiment: Induction of apoptosis in cisplatin-resistant human A2780 cells assessed as inhibition of pPTEN degradation at 2 uM by immunoblot analysis. The format is functional, cell-based.
The subject of assay [17] is A2780. As to the kind of experiment: Induction of apoptosis in cisplatin-resistant human A2780 cells assessed as decrease in CycD1 expression at 2 uM by immunoblot analysis. The format is functional, cell-based. The following applies: TDE = time-dependent effect.
In assay [18] the test system is A2780. As to the kind of experiment: Induction of apoptosis in cisplatin-resistant human A2780 cells overexpressing PTEN assessed as enhancement of cleaved caspase-3 by Western blotting. The format is functional, cell-based.
Assay [19] deals with A2780. Kind of assay: Reversal of induction of apoptosis in cisplatin-resistant human A2780 cells assessed as increase of Akt phosphorylation by immunoblot analysis in presence of PTEN-specific siRNA. It is filed as functional, cell-based.
Assay [20] has as its system A2780. As to the kind of experiment: Induction of apoptosis in cisplatin-resistant human A2780 cells assessed as decrease in MDM2 level at 2 uM by immunoblot analysis. The format is functional, cell-based. Particulars: TDE = time-dependent effect.
In assay [21] the test system is A2780. Kind of assay: Induction of apoptosis in cisplatin-resistant human A2780 cells assessed as increase in Fas/CD95 receptor expression at 2 uM after 6 to 24 hrs by immunoblot analysis. It is filed as functional, cell-based.
Assay [22] relates to A2780. Kind of assay: Induction of apoptosis in cisplatin-resistant human A2780 cells assessed as enhancement of p53 level at 2 uM by immunoblot analysis. It is filed as functional, cell-based.
For assay [23], the system named is A2780. As to the kind of experiment: Induction of apoptosis in cisplatin-resistant human A2780 cells assessed as decrease in CycB1 expression at 2 uM by immunoblot analysis. It is filed as functional, cell-based. The following applies: TDE = time-dependent effect.
Assay [24] relates to A2780. As to the kind of experiment: Induction of apoptosis in cisplatin-resistant human A2780 cells assessed as accumulation at G2/M phase at 2 uM after 12 hrs by flow cytometry relative to control. It is filed as functional.
The subject of assay [25] is A2780. As to the kind of experiment: Cell viability of cisplatin-resistant human A2780 cells overexpressing PTEN at 2 uM after 24 hrs by MTT assay. It is filed as functional, cell-based.
For assay [26], the system named is A2780. As to the kind of experiment: Reversal of induction of apoptosis in cisplatin-resistant human A2780 cells assessed as inhibition of cleaved PARP by immunoblot analysis in presence of PTEN-specific siRNA. The format is functional, cell-based.
Assay [27] relates to A2780. Kind of assay: Induction of apoptosis in cisplatin-resistant human A2780 cells assessed as decrease in CycA expression at 2 uM by immunoblot analysis. The format is functional, cell-based. The following applies: TDE = time-dependent effect.
A further assay has as its system CHO. Kind of assay: Cell viability of CHO cells after 24 hrs by MTT assay. The format is functional, cell-based. Particulars: Cricetulus griseus.
The subject of assay [28] is A2780. As to the kind of experiment: Induction of apoptosis in cisplatin-resistant human A2780 cells assessed as accumulation at sub-G1 phase at 2 uM after 24 hrs by flow cytometry relative to control. It is filed as functional.
For assay [29], the system named is A2780. As to the kind of experiment: Induction of apoptosis in cisplatin-resistant human A2780 cells assessed as decrease in phosphorylated Akt level at 2 uM after 12 hrs by immunoblot analysis. The format is functional, cell-based.
Assay [30] has as its system A2780. Kind of assay: Induction of apoptosis in cisplatin-resistant human A2780 cells assessed as decrease in pERK1/2 level at 2 uM after 24 hrs by immunoblot analysis. It is filed as functional, cell-based.
Assay [31] concerns A2780. As to the kind of experiment: Cell viability of human cisplatin-sensitive human A2780 cells after 24 hrs by MTT assay. It is filed as functional, cell-based. The following applies: A2780, 24 h.
Assay [32] concerns A2780. As to the kind of experiment: Reversal of induction of apoptosis in cisplatin-resistant human A2780 cells assessed as inhibition of cleaved caspase-3 by immunoblot analysis in presence of PTEN-specific siRNA. It is filed as functional, cell-based.
Assay [33] deals with A2780. Kind of assay: Induction of apoptosis in cisplatin-resistant human A2780 cells assessed as increase in FasL receptor expression at 2 uM by immunoblot analysis. The format is functional, cell-based. The following applies: TDE = time-dependent effect.
The subject of assay [34] is A2780. Kind of assay: Induction of apoptosis in cisplatin-resistant human A2780 cells assessed as change in Wee1 level at 2 uM by immunoblot analysis. It is filed as functional, cell-based.
Assay [35] concerns A2780. As to the kind of experiment: Induction of apoptosis in cisplatin-resistant human A2780 cells assessed as enhancement of p21 level at 2 uM by immunoblot analysis. The format is functional, cell-based.
Assay [36] concerns A2780. As to the kind of experiment: Induction of apoptosis in cisplatin-resistant human A2780 cells overexpressing PTEN assessed as enhancement of cleaved PARP by Western blotting. The format is functional, cell-based.
Assay [37] deals with A2780. Kind of assay: Induction of apoptosis in cisplatin-resistant human A2780 cells overexpressing PTEN assessed as inhibition of pAkt by Western blotting. It is filed as functional, cell-based.
Assay [38] concerns A2780. As to the kind of experiment: Reversal of induction of apoptosis in cisplatin-resistant human A2780 cells assessed as inhibition of cleaved caspase-7 by immunoblot analysis in presence of PTEN-specific siRNA. It is filed as functional, cell-based.
Assay [39] concerns A2780. Kind of assay: Induction of apoptosis in cisplatin-resistant human A2780 cells assessed as decrease in pERK1/2 level at 2 uM after 48 hrs by immunoblot analysis. It is filed as functional, cell-based.
Assay [40] deals with A2780. As to the kind of experiment: Reversal of induction of apoptosis in cisplatin-resistant human A2780 cells assessed as accumulation at sub-G1 phase at 2 uM after 24 hrs by flow cytometry in presence of z-VAD-fmk. It is filed as functional, cell-based.

The source made the active and inactive calls. No cut-off for these calls is given here. Residues, ends and D or L forms follow the SMILES beside them. *: point of attachment. Cbz = O=C(OCc1ccccc1)*

As a reminder, the IC50 is the concentration that inhibits the measured activity by half. Regarding `O=C1/C(=C/c2ccccc2F)CNC/C1=C\c1ccccc1F`, the result in the assay on A2780 [1], in the assay on A2780 [4], with A2780 [5], in the assay with A2780 [7], in the assay with A2780 [8] and with A2780 [11] was Active. In addition, the outcome in the assay on A2780 [12], in the assay with A2780 [14], with A2780 [16], with A2780 [18], in the assay on A2780 [19] and in the assay with A2780 [22] was Active. In addition, the outcome in the assay with A2780 [25], in the assay with A2780 [26], with A2780 [29], with A2780 [30], with A2780 [32] and in the assay on A2780 [35] was Active. Besides, the result with A2780 [36], in the assay with A2780 [37], in the assay with A2780 [38], in the assay with A2780 [39] and in the assay with A2780 [40] was Active. Further, the outcome with A2780 [2], with A2780 [13], with A2780 [21] and with A2780 [34] was inactive. The Activity entry was “tde” in the assay on A2780 [3]; 27.3% in the assay with A2780 [6]; 36.8% in the assay on A2780 [10]; “tde” in the assay on A2780 [15]; “tde” with A2780 [17]; “tde” with A2780 [20]. Besides, the Activity entry in the assay with A2780 [23] is “tde”; with A2780 [24], 57.5%; in the assay with A2780 [27], “tde”; with A2780 [28] it was 35.3%; in the assay on A2780 [33] it was “tde”. Also, the half-maximal inhibitory concentration (IC50) with A2780 [9] came out at 650 nM; in the assay with CHO, 4600 nM; in the assay with A2780 [31], 500 nM.

In the case of `O=c1cc(N2CCOCC2)oc2c(-c3ccccc3)cccc12`, in the assay with A2780 [29], the result was Active.

For `CC(C)C[C@@H](C=O)NC(=O)[C@H](CC(C)C)NC(=O)[C@H](CC(C)C)NC(=O)OCc1ccccc1` (Cbz-Leu-Leu-Leu-aldehyde), the outcome with A2780 [14] was Active.
